The values that follow come from publication PMC5931996 (Scientific Reports, 2018).

Data set [1] deals with 5-HTP-induced head twitches in rats. As to the kind of experiment: 5-HTP-induced head twitch. The class given is in vivo, SD rats. The conditions noted are these: mean ± S.E.M. The protocol:
SD rats (200–250 g, 8 animals/ group) were housed in the test room for at least 1 h before the experiment. […] Then, all animals were intraperitoneally injected with 0.9% saline or 5-HTP (320 mg/kg) 40 min before the test. The number of head twitches was recorded during a period of 40–70 min after intraperitoneal injection.

Data set [2] deals with MK-801-induced locomotor hyperactivity in rats. In words: Inhibition of MK-801-induced hyperactivity. The class given is in vivo, SD rats. The conditions noted are these: mean ± S.E.M. The protocol:
[…]. […] Animals were returned to the activity chambers after the intraperitoneal injection, and locomotor activity as quantitated as the distance travelled (mm) was recorded for 10 to 20 minutes using the TopScan monitoring system. At the end of each trial, the faecal boli were cleaned to avoid the potential influence of intramaze cues (odour trails, etc.) on the rats[36].

In data set [3] the test system is MK-801-treated rats. In words: Morris water maze test, acute administration, MK-801-treated rats. The class given is in vivo, SD rats. The conditions noted are these: mean ± S.E.M. The protocol: SD rats (200–250 g, 8 animals/ group) were trained continuously until all rats found the platform within 30 sec, and the training time depended on the training results. […]. Then, all animals were intraperitoneal injections of 0.9% saline or MK-801 (0.2 mg/kg, i.p.) 30 minutes before the test. The test was started and the escape latency of rats was measured during the test in which platform was not withdrawn. A trial was deemed complete as soon as the rat had located platform or when 60 s had elapsed, whichever occurred first. The swimming activity of each rat was monitored by TopScan monitoring system. At the end of each trial, the maze was cleaned. The maze was rotated by clockwise after each training day to avoid potential intramaze cues (odour trails, etc.)[38].

In data set [4] the test system is MK-801-treated rats. In words: Morris water maze test, subchronic administration, MK-801-treated rats. Type of data set: in vivo, SD rats. The protocol: The MWM test was started after the last injection. Each rat was trained in 4 trials per day for 5 consecutive days. The escape latency to find the submerged escape platform in the water maze was recorded with the TopScan monitoring system. Each training session lasted for a maximum of 60 s. If the escape latency exceeded 60 s, it was recorded as 60 s and the rat was manually guided to the platform. On day 6, the platform was removed and each rat was allowed to swim freely for 60 s.

Data set [5] has as its system MK-801-induced NOR deficit in rats. As to the kind of experiment: Novel object recognition (NOR) test. The conditions noted are these: MK-801 0.3 mg/kg i.p. day 15–28 with vehicle (model group).
Method: Rats were testing after the last administration. Following a 10-min habituation session on the day of testing, each rat was placed in the NOR chamber (grey PVC boxes 60*60 cm wide and 45 cm deep) and exposed to two identical objects (Left and Right) for a period of 10 min (Acquisition Trial). The objects used in this experiment were rectangular plastic cases. […] Rats were then returned to their home cage for an inter-trial interval (ITI) of 1.5 h and the entire box was cleaned. Then one was replaced with an identical familiar copy and one was replaced with a novel object. Following the ITI, rats were returned to the apparatus and allowed to explore the familiar and novel objects in the test box for a 10-min retention trial (Retention Trial). All experiments were monitored by TopScan monitoring system[39].
The subject of the next data set is plasma prolactin. In words: Plasma prolactin levels in rats (ELISA). The settings on record: 0.2 mg/kg for 28 days, mean ± S.E.M. The class given is in vivo. The protocol:
[…]. Plasma prolactin levels were assessed using a commercially available Prolactin ELISA (Mouse/Rat) purchased from GenWay, according to the manufacturer’s instructions. Plasma TC and triglyceride levels were assessed using a Roche automatic biochemical analyser Cobas c 311.
In general terms: In an ELISA, binding on a coated surface is turned into a signal by an enzyme label.

Data set [6] is described as follows: Body weight of rats after 28 days of dosing. Type of data set: in vivo. The settings on record: 0.2 mg/kg for 28 days, mean ± S.E.M.

As to `N[C@@H](Cc1c[nH]c2ccc(O)cc12)C(=O)O` [5-HTP, reference compound], the “number of head twitches” value in data set [1] (5-HTP 320 mg/kg i.p. with vehicle (model group)) is 52.5 ± 2.57.
As to `O=C1CCc2ccc(OCCCCN3CCN(c4cccc(Cl)c4Cl)CC3)cc2N1` [Aripiprazole, reference compound], in data set [2] ([…] oral 1 h before test, MK-801 0.3 mg/kg i.p.), the distance travelled was determined as 1957 ± 455.1 mm. Besides, in data set [1] ([…] oral 1 h before test, 5-HTP 320 mg/kg i.p., 40–70 min after injection), the “number of head twitches” value was determined as 31.5 ± 3.12. In addition, the escape latency in the data set with MK-801-treated rats [3] ([…] oral 1 h before test, MK-801 0.2 mg/kg i.p.) is on record as 21.71 ± 0.86 s; in the data set with MK-801-treated rats [4] ([…] oral for 28 days, MK-801 0.3 mg/kg i.p. day 15–28, mean ± S.E.M.), 31.83 ± 5.00 s.
In the case of `C[C@]12N[C@H](Cc3ccccc31)c1ccccc12` [MK-801, reference compound], the “Discrimination Index (DI)” value in data set [5] is 0.51 ± 0.04. Moreover, in data set [2] (MK-801 0.3 mg/kg i.p. with vehicle (model group)), the distance travelled turned out to be 4933 ± 275.6 mm. The escape latency in the data set on MK-801-treated rats [3] (MK-801 0.2 mg/kg i.p. with vehicle (model group)) was 35.67 ± 4.05 s; in the data set on MK-801-treated rats [4] (MK-801 0.3 mg/kg i.p. day 15–28 with vehicle (model group), mean ± S.E.M.), 25.56 ± 4.36 s.
`Cc1nc2n(c(=O)c1CCN1CCC(c3noc4cc(F)ccc34)CC1)CCCC2` [Risperidone, reference compound] had a plasma prolactin level in the data set with plasma prolactin of 5.67 ± 0.51 ng/mL. This compound registered a distance travelled in data set [2] (0.2 mg/kg oral 1 h before test, MK-801 0.3 mg/kg i.p.) of 1886 ± 437.3 mm. For the same compound, the “number of head twitches” value in data set [1] (0.2 mg/kg oral 1 h before test, 5-HTP 320 mg/kg i.p., 40–70 min after injection) is 9 ± 1.73. Besides, the escape latency with MK-801-treated rats [3] (0.2 mg/kg oral 1 h before test, MK-801 0.2 mg/kg i.p.) came out at 20.71 ± 2.18 s; with MK-801-treated rats [4] (0.2 mg/kg oral for 28 days, MK-801 0.3 mg/kg i.p. day 15–28, mean ± S.E.M.) it was 11.81 ± 3.06 s. Besides, the body weights in data set [6] worked out at 116.4 ± 10.51 g.
